Source: patent publication EP0326134A1, “4-Amino-2,3-disubstituted-6,7-dihydro-5H-1-pyridine derivatives, process for their preparation and medicaments containing them” (NAUCHNO-ISSLEDOVATELSKY INSTITUT TEKHNOLOGII I BEZOPASNOSTI …, priority 1988, dated 1989)
Like-named read-outs stand apart in the source and are kept apart here.

Tests used:
[1] = Side effects and CNS/behaviour: tremor (TD50), sedative and m-cholinomimetic effects; assay type: in vivo
Excerpt: Von Interesse ist der Einfluß der erfindungsgemäßen Verbindungen auf das ZNS und das Verhalten der Tiere.

[2] = test system: durch Skopolamin hervorgerufene Amnesie; test: Dark avoidance assay (passive avoidance), scopolamine-induced amnesia; assay type: in vivo, Mäusen; conditions: for Einfluß auf das Gedächtnis: Zahl der Tiere in %, bei denen die Skopolaminwirkung aufgehoben wurde: mice, compound s.c. 5 min before learning, Skopolamin i.p. 30 min before
Protocol: Die Mäuse wurden dabei in den hellen Abschnitt der Kammer gegeben, wonach die Latenzzeit für den Übertritt in die dunkle Kammer, in der die Tiere einem Stromschlag von 0,5 mA ausgesetzt waren, registriert wurde. Danach erhöhte sich die Latenzzeit für den Übertritt in den dunklen Abschnitt und verringerte sich die Aufenthaltsdauer. 30 Minuten vor dem Versuch wurden den Mäusen i.p. […] Gedächtnisstörungen hervorrufendes Skopolamin als Cholinblocker injiziert. Die erfindungsgemäßen Verbindungen wurden s.c. 5 Minuten vor dem Lernvorgang injiziert. Das Skopolamin verkürzt die Latenzzeit für den Übertritt in die dunkle Kammer, die erfindungsgemäßen Verbindungen stellen jedoch die Latenzzeitwerte wie bei der Kontrollgruppe wieder her oder bedingen ein geringfügiges Überschreiten dieser Werte (siehe Tabelle 2). Gleichzeitig wird die Aufenthaltsdauer der Tiere im dunklen Abschnitt der Kammer auf 36 bis 45 Hundertstel des Ausgangswerts verringert.

[3] = test system: Nerven-Muskel-Präparat von Mäusen (n.peroneus-m.extensor digitorum longus); test: Neuromuscular transmission in isolated nerve-muscle preparation (EPP, minEPP); conditions: for Stimulierung der Nerven-Muskelübertragung, in % der Amplitude: EPP: EPP = Endplattenpotential
Excerpt: Der Einfluß der Stoffe auf die Nerven-Muskei-Übertragung wurde am isolierten Nerven-Muskel-Präparat von Mäusen (n.peroneus-m.extensor digitorum longus) (s. Bhattacharyya B. et al. "Neuromuscular blocking action of two hemicholinium-3 analogs" Europ. J. Pharmac. 146, 155-165 /1988/) untersucht, das von Lilly-Lösung perfundiert wurde, durch die man ein Gemisch von 02 und C02 leitete. […] Das Endplattenpotential (EPP) und das Endplattenminiaturpotential (minEPP) wurden mit Hilfe eines Magnetografen aufgezeichnet und danach mit dem Computer ausgewertet. Ermittelt wurden die Frequenz (f), die Amplitude (A) und die Dauer (t) der minEPP und der EPP (s. Tabelle 2).

[4] = target: T1, Acetylcholinesterase menschlicher Erythrozyten (Homo sapiens, UniProt P22303); test: Acetylcholinesterase inhibition, spectrophotometric; assay type: biochemical
T1 construct: Acetylcholin-esteraseinhi-bierung bei menschlichen Erythrozyten; from tissue; host or cells: human erythrocytes
Excerpt: Untersucht wurden die Wirkmechanismen der erfindungsgemäßen Verbindungen: • 1. Die Wirkung auf Acetylcholinesterase menschlicher Erythrozyten auf spektrofotometrischem Wege. • 2.

[5] = Acute toxicity, single intraperitoneal injection, probit analysis (LD50); assay type: in vivo, Mäusen; conditions: mice, i.p.
Excerpt: Ihre akute Toxizität wurde an Mäusen (einmalige intraperitoneale Injektion) nach der Methode der Probit-Analyse nach Zichtfield, Wilcoxon, t949 untersucht. In Tabelle 2 sind die Parameter der akuten Toxizität (LDso) angegeben, die eine mäßige Toxizität der erfindungsgemäßen Verbindungen belegen.

[6] = test system: Zahl der Krämpfe; test: Writhing test (intraperitoneal acetic acid); assay type: in vivo, Mäusen; conditions: male mice
Excerpt: Die analgetische Wirkung der erfindungsgemäßen Verbindungen wurde an männlichen Mäusen anhand des "Krampf"-Tests (Writhing-Tests) unter intraperitonealer Injizierung von Essigsäure und des Hot-plate-Tests untersucht. Im ersten Falle wurde die analgetische Wirkung der Verbindungen anhand der prozentualen Verringerung der Zahl der Krämpfe ermittelt. Beim zweiten Test wurde die Schwelle der Schmerzempfindlichkeit (Ablecken der Pfoten) bestimmt. Die stärkste analgetische Wirkung der erfindungsgemäßen Verbindungen zeigte sich beim "Krampf"-Test. Dabei übertrafen die Salze der bicyclischen Basen Amyridin, aber nicht alle erfindungsgemäßen Verbindungen waren schwächer als Morphin (s. Tabelle 4).

[7] = test system: Wirkung von Hexenal; test: Influence on the effect of Hexenal; assay type: in vivo, Mäusen; conditions: mice
[8] = test system: Orientierungsaktivität; test: Influence on orientation activity; assay type: in vivo, Mäusen; conditions: mice
Excerpt: Von Interesse ist der Einfluß der erfindungsgemäßen Verbindungen auf das ZNS und das Verhalten der Tiere. Alle Verbindungen zeigen eine Kombination von stimulierenden und sedativen Eigenschaften und bei höheren Dosen auch eine m-cholinomimetische Wirkung, wobei Tremor, Speichelfluß und Diarrhoe ausgelöst werden.

[9] = test system: isolierten Präparaten des rechten Vorhofs von Kaninchen; test: Antiarrhythmic effect on isolated right atrium preparations (microelectrodes: AP duration, refractory period R, e/R); conditions: isolated right atrium of rabbit; for Antiarrhythmische Wirkung: Verlängerung d. Refraktärzeit (R), in %: microelectrodes
Excerpt: (§1) Die antiarrhythmische Wirkung der erfindungsgemäßen Verbindungen wurde in zwei Versuchsserien untersucht, und zwar an isolierten Präparaten des rechten Vorhofs von Kaninchen und mit Hilfe des Calciumchlorid-Arrhythmie-Modells an Ratten. In den Versuchen an den isolierten Präparaten des rechten Vorhofs wurden mit Hilfe von Mikroelektroden die Dauer des AP sowie der Refraktärzeit (R) und die maximale Hemmung (e) und der Parameter (e/R) untersucht, durch den die Anfälligkeit des Myokards gegenüber der Entstehung von Arrhythmien gekennzeichnet wird. In den Versuchen an Ratten wurden diesen Calciumchlorid in einer Dosierung von 250 mg/kg injiziert. Registriert wurden das Vorliegen von Kammerflimmern und die Lebensdauer der Tiere. Sämtliche erfindungsgemäßen Verbindungen üben eine mäßige antiarrhythmische Wirkung aus. Sie steigern die Refraktärzeit des Muskels und des AP um 35 bis 145 % und verringern gleichzeitig die Anfälligkeit des Myokards, ausgedrückt durch den Parameter e/R um 10 bis 80 % (s. Tabelle 4). In bezug auf diese Wirkung waren die Salze der bicyclischen Basen wirksamer als Amyridin. Bezüglich des Vermögens, die Tiere vor Kammerflimmern und vor dem Tod nach Verabreichung von 250 mg/kg Calciumchlorid zu schützen, waren diese Verbindungen ebenfalls am stärksten wirksam. Bei Verwendung des Calciumchlorid-Arrhythmie-Modells waren viele erfindungsgemäßen Verbindungen stärker wirksam als das klassische Antiarrhythmikum Chinidin (s. M.D. Ma s kovskij, Lekarstvennye sredstva, Bd. 1, S. 401, Moskau, Medicina, 1984).

[10] = test system: Calciumchlorid-Arrhythmie-Modells; test: Calcium chloride arrhythmia model (250 mg/kg): ventricular fibrillation, survival; assay type: in vivo, Ratten; conditions: rats, calcium chloride 250 mg/kg
Excerpt: as §1

[11] = ED50 = dose blocking the effect of Skopolamin in 50 % of the animals (passive avoidance, mice)
[12] = toxic dose causing tremor in 50 % of the animals
[13] = Acetylcholinesteraseinhibierung bei menschlichen Erythrozyten IK, (Mol), human erythrocyte enzyme

T1 sequence (P22303 other isoform, or with tags, fused parts or gaps): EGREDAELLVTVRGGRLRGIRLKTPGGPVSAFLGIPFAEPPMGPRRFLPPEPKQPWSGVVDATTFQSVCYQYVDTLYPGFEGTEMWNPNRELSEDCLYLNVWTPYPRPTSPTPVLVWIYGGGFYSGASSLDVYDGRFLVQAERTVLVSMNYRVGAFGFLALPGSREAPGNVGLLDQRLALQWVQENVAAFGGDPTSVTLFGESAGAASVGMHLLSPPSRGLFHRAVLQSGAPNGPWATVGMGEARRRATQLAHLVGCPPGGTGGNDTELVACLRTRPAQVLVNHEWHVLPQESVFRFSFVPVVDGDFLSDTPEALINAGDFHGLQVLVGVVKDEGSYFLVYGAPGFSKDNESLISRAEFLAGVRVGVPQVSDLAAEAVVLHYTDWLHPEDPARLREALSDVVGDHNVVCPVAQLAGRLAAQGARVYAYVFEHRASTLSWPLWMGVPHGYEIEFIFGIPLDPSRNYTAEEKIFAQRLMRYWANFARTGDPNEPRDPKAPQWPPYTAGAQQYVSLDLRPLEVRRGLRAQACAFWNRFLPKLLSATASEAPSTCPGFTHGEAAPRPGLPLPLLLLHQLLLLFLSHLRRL

Compound	Verhältnis TD50 zu ED50 [1, 11]	TD50 (Tremor) [1, 12]	Einfluß auf das Gedächtnis: Zahl der Tiere in %, bei denen die Skopolaminwirkung aufgehoben wurde [2]	Stimulierung der Nerven-Muskelübertragung, in % der Amplitude: EPP [3]	Stimulierung der Nerven-Muskelübertragung, in % der Amplitude: minEPP [3]	Ki [4, 13]	LD50 [5]	Analgetische Wirkung: Abnahme d. Zahl der "Krämpfe" bei Mäusen, in % [6]	Änderung der Dauer der Seitenlage, in %: Hexenal 60 mg/kg [7]	Änderung der Orientierungsaktivität, in % [8]	Antiarrhythmische Wirkung: Verlängerung d. Refraktärzeit (R), in % [9]	Antiarrhythmische Wirkung: Verlängerung d. Lebensdauer von Ratten an Hand des CaCl2-Arrhythmie-Modells, in % [10]	selectivity ratio ([1]; in vivo, ED50 = dose blocking the effect of Skopolamin in 50 % of the animals (passive avoidance, mice), read-out: Verhältnis TD50 zu ED50)	TD50 ([1]; in vivo, toxic dose causing tremor in 50 % of the animals)	antiamnestische Wirkung ([2]; in words, compared with Amyridin)	Ki ([4]; read-out: Acetylcholinesteraseinhibierung bei menschlichen Erythrozyten IK, (Mol), human erythrocyte enzyme)	LD50 ([5]; mouse, in vivo, ip, read-out: LD50)	Antiarrhythmische Wirkung: Abnahme d. Parameters θ/R, in % ([9]; parameter marks susceptibility of the myocardium to arrhythmia)
Cc1nc2c(c(N)c1C)CCC2 [Verbindung 5]	13	9 mg/kg	60%	40%	90%	660 nM	25 mg/kg	90%	0%	-10%	110%	130%						
Cc1nc2c(c(N)c1C)CCC2 [Verbindung 15]	6,8	7 mg/kg	72%	40%	75%	650 nM	16 mg/kg	65%	+30%	-15%	90%	110%						
Cc1nc2c(c(N)c1C)CCC2 [Verbindung 14]	8,2	9 mg/kg	70%	30%	62%	350 nM	17 mg/kg	50%	+15%	-7%	100%	90%						
Cc1nc2c(c(N)c1C)CCC2 [Verbindung 7]	9	9 mg/kg	80%	52%	95%	366 nM	20 mg/kg	60%	+32%	-25%	110%	150%						
Cc1nc2c(c(N)c1C)CCC2 [Verbindung 13]	8,5	8 mg/kg	65%	35%	72%	450 nM	18 mg/kg	60%	+25%	-10%	120%	100%						
Cc1nc2c(c(N)c1C)CCC2 [Verbindung 2]	12,5	5 mg/kg	75%	45%	85%	48 nM	15 mg/kg	70%	+35%	-15%	130%	160%						
Cc1nc2c(c(N)c1-c1ccccc1)CCC2 [Verbindung 32]			50%	20%	45%								2.6	10 mg/kg	ausgenommen	50000 nM	18 mg/kg	
Cc1nc2c(c(N)c1C)CCC2 [Verbindung 18]	6	9 mg/kg	70%	45%	80%	145 nM	16 mg/kg											
CCc1c(C)nc2c(c1N)CCC2 [Verbindung 22]	4	12 mg/kg	70%	25%	60%		32 mg/kg											
Cc1nc2c(c(N)c1C)CCC2 [Verbindung 17]	7,1	10 mg/kg	72%	43%	75%	390 nM	24 mg/kg											
4-Amino-2,3-dimethyl-6,7-dihydro-5H-1-pyrindinsalicylat [Verbindung 8]	6	8 mg/kg	70%	40%	75%		17 mg/kg	70%	0%	0%	100%	190%						58%
